Source: patent publication US6432434B1, “Treatment of and/or prophylaxis against brain and spinal cord injury” (The United States of America as represented by the …, priority 1999, dated 2002)
Read-outs that look alike come from different tables or passages of the source.

Columns and labels:
[1] = system: ischemia-reperfusion injury; conditions: rat; cited from earlier work
[2] = system: ischemia-reperfusion injury; conditions: gerbil; cited from earlier work
[3] = system: NMDA and malonic acid lesions of striatum; conditions: rats; cited from earlier work
[4] = man, cited from earlier work
[5] = system: rats injected intrathecally with dynorphin A; test: Dynorphin A-induced paralysis in rats, neurological score; type: in vivo, rat; conditions: n = 9, 5 μmoles DHL in DMSO intrathecally
Description: Rats were injected with […] of dynorphin A in combination with DMSO (vehicle only) or dynorphin A (Dny) with 5 μmoles of dihydrolipoate in DMSO. The DMSO (control) and the DMSO with dihydrolipoate (DHL/DMSO) were administered as 2 hour pretreatment before administration of the dynorphin A and as cotreatment with dynorphin A. All rats were flaccidly paralyzed 10 minutes following dynorphin a injections. All injections were administered intrathecally.

[6] = 2 hrs, pretreatment and cotreatment with dynorphin A
[7] = 24 hrs, pretreatment and cotreatment with dynorphin A

Row | SMILES | Neuroprotection against ischemia-reperfusion injury [1] | Neuroprotection against ischemia-reperfusion injury [2] | Effect against NMDA lesions of striatum [3] | Effect against malonic acid lesions of striatum [3] | Clinical safety / tolerability [4] | Clinical safety / tolerability ([4]; listed as αLA) | Number of animals with neurological score 4 (normal) ([5]; 2 hrs, 2 hour pretreatment and cotreatment with 20 μmoles dynorphin A, 4 normal, 0 flaccid paralysis) | Number of animals with neurological score 0 (flaccid paralysis) [5, 6] | Number of animals with neurological score 1 [5, 6] | Number of animals with neurological score 2 [5, 6] | Number of animals with neurological score 3 [5, 6] | Number of animals with neurological score 1 [5, 7] | Number of animals with neurological score 3 [5, 7] | Number of animals with neurological score 4 (normal) [5, 7]
1 | O=C(O)CCCCC1CCSS1 (stereo not drawn) [Alpha lipoic acid] | neuroprotective | neuroprotective | effective | effective | clinically safe | well tolerated |  |  |  |  |  |  |  | 
2 | O=C(O)CCCC[C@@H](S)CCS (racemic) [DHL, dihydrolipoic acid] |  |  |  |  |  |  | 2 | 1 | 1 | 2 | 3 | 2 | 3 | 4
